Results taken from patent publication US6331287A, “2'-deoxy-2'-fluoro-d-arabinofuranosyl pyrimidine nucleoside” (University Advanced Bio-imaging Associates, priority 1998, dated 2001).
Entries after “also recorded” stand apart in the source; their conditions may differ. Where two headings read alike, the source gives them in different places.

Tests used:
[1] = cited from earlier work
thymidine incorporation = conditions: read-out: ED50 for inhibition of thymidine incorporation; cited from earlier work
mammalian kinases = conditions: relative to thymidine, cell culture systems; cited from earlier work
viral kinases = conditions: relative to thymidine, cell culture systems; cited from earlier work
[2] = dogs; cited from earlier work
[3] = patients, Phase I; cited from earlier work
[4] = dogs, cited from earlier work
host DNA = conditions: cited from earlier work
[5] = rats, cited from earlier work
[6] = tested on: organs with rapidly dividing cells such as the small intestine and spleen; conditions: rats; cited from earlier work
PC12 cells = conditions: in culture; cited from earlier work
[7] = mice, cited from earlier work
Vero cells = conditions: in culture; cited from earlier work
[8] = tested on: brain tumor (gliosarcoma); conditions: dogs not infected by herpes simplex virus, PET
[9] = HPLC analysis of plasma samples for radiolabeled metabolites in dogs; type: in vivo; conditions: dog, FMAU over 90 minutes
[10] = Plasma clearance of [^11 C]FMAU or [^11 C]TdR after intravenous bolus in dogs (FIG. 1); type: in vivo; conditions: dog; for plasma clearance: intravenous
[11] = Storage stability of compound 2; type: physicochemical; conditions: after flash chromatography, anhydrous conditions
Description: After purification by flash chromatography compound 2 could be stored at room temperature for at least 10 months under anhydrous conditions. Its melting point was broad due to the fact that a mixture of four diastereomers were probably present. Treatment of compound 2 with n-butyllithium (2.5 equivalent) produced the dianion 3 in situ which was treated with either unlabeled or [^11 C]-methyl iodide to produce the methylated product 4. The major by-product in the methylation reaction was the dehalogenated compound 5. The ratio of the desired product to the by-product was 43:57, as determined by ^1 HNMR integration of the C6 hydrogen. Deprotection of the tetrahydropyranyl ether produced the desired compound FMAU in 82% chemical yield.

[12] = intravenous, through 24 hours, HPLC
[13] = intravenous bolus 20-25 mCi, 50-100 Ci/mmol, two components of approximately equal amplitudes

Compound: O=c1[nH]c(=O)n([C@@H]2O[C@H](CO)[C@@H](O)[C@@H]2F)cc1I [FIAU, 2'-Fluoro-5-iodo-1-β-D-arabinofuranosyluracil]
- dehalogenation / deiodination in vivo [1]: deiodination followed by methylation at the 5 position of the base also can occur prior to DNA incorporation

Compound: Cc1cn([C@@H]2O[C@H](CO)[C@@H](O)[C@@H]2F)c(=O)[nH]c1=O [FMAU, 2'-fluoro-5-methyl-1-β-D-arabinofuranosyluracil]
- IC50 (thymidine incorporation): 8 to 28 µM
- phosphorylation by mammalian kinases (mammalian kinases): phosphorylated by mammalian kinases to levels approaching that of thymidine; also recorded: good substrate relative to thymidine
- phosphorylation by viral kinases (viral kinases): good substrate relative to thymidine
- LD10 [2]: 25 mg/m^2×10 days
- dose above which significant dose-limiting neurotoxicity developed [3]: above 8 mg/m^2×5 days
- glucuronide adduct of FMAU among trace metabolites ([4]; urine, present in all three species): most abundant in dogs

Compound: Cc1cn([C@@H]2O[C@H](CO)[C@@H](O)[C@@H]2F)[14c](=O)[nH]c1=O [[2-^14 C]-FMAU]
- incorporation into host DNA (host DNA): substantial incorporation
- composition of urine radioactivity [5, 12]: primarily of unchanged parent compound
- injected radioactivity cleared into the urine ([5]; intravenous): Nearly all
- four minor metabolites, share of total urine radioactivity ([5]; urine at 24 hr): < 5%
- accumulation in small intestine and spleen [6]: preferentially observed
- composition of urine radioactivity [4, 12]: primarily of unchanged parent compound
- injected radioactivity cleared into the urine ([4]; intravenous): Nearly all
- four minor metabolites, share of total urine radioactivity ([4]; urine at 24 hr): less than 3%
- accumulation in proliferating PC12 cells (PC12 cells): preferentially observed
- composition of urine radioactivity [7, 12]: primarily of unchanged parent compound
- injected radioactivity cleared into the urine ([7]; intravenous): Nearly all
- four minor metabolites, share of total urine radioactivity ([7]; urine at 24 hr): < 15%
- accumulation in proliferating Vero cells (Vero cells): preferentially observed

Compound: [11CH3]c1cn([C@@H]2O[C@H](CO)[C@@H](O)[C@@H]2F)c(=O)[nH]c1=O [[^11 C]FMAU, 2'-fluoro-5-[^11 C-methyl]-1-β-D-arabinofuranosyluracil]
- localization in brain tumor / tumor visualization [8]: localized selectively within the proliferating cells of brain tumors, but not in normal brain cells; also recorded: the tumor was well visualized; also recorded: accumulated within brain tumor cells that were not infected with herpes simplex virus
- radiolabeled metabolites in plasma [9]: no radiolabeled metabolites
- plasma clearance [10]: rapid plasma clearance
- half time of first exponential component of plasma activity concentration curve [10, 13]: 2.4 min
- half time of second exponential component of plasma activity concentration curve [10, 13]: 63 min
- plasma clearance ([10]; listed as [^11 C] FMAU): rapid clearance

Compound: [11CH3]c1cn([C@H]2CC(O)[C@@H](CO)O2)c(=O)[nH]c1=O (stereo partly shown) [[^11 C]TdR]
- radiolabeled metabolites in plasma [9]: progressive rise in radiolabeled metabolites
- plasma clearance [10]: rapid plasma clearance

Compound: Nc1nc(=O)n([C@@H]2O[C@H](CO)[C@@H](O)[C@@H]2F)cc1[125I] [[^125 I] labeled FIAC, [^125 I]2'-fluoro-5-iodo-1-β-D-arabinofuranosyl-cytosine]
- dehalogenation / deiodination in vivo [1]: extensive deiodination in vivo

Compound: O=c1[nH]c(=O)n([C@@H]2O[C@H](COC3CCCCO3)[C@@H](OC3CCCCO3)[C@@H]2F)cc1I (stereo partly drawn) [compound 2, 3', 5'-O-bis-(tetrahydropyranyl)-2'-fluoro-5-iodo-1-β-D-arabino-furanosyluracil]
- storage stability at room temperature [11]: at least 10 months

Compound: O=c1[nH]c(=O)n([C@H]2C[C@H](O)[C@@H](CO)O2)cc1[131I] [radioiodinated IUdR]
- dehalogenation / deiodination in vivo [1]: significant dehalogenation
